Like-named read-outs stand apart in the source and are kept apart here.
What was measured:
viable cells in culture = experiment: Cell viability assay (CellTiter-Glo Luminescent Cell Viability Assay, ATP quantitation, percent of vehicle control)
[1] = system: human TERT expression (hTERT mRNA); experiment: Quantitative real-time RT-PCR of hTERT mRNA expression (Ct, transcripts) in compound-treated cells; type: cell-based
Method in brief: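 Read-out is cycle threshold, the cycle at which probe fluorescence released by Taq 5′-nuclease activity crosses a set level; Ct falls as hTERT mRNA rises. cDNA of treated and untreated cells was compared, with starting transcripts quantified against a known-cDNA standard curve.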

SMILES | Average Cell Viability after 24 Hours (% DMSO) (viable cells in culture) | Average Number of hTERT Transcripts [1] | Average Number of hTERT Transcripts ([1]; quantitative real-time RT-PCR)
COC(=O)COc1ccc(CSc2nnc(-c3ccc(Cl)cc3)n2-c2ccccc2)cc1 [compound 1388] | 29.68 | 42.56 | –
O=C(NCCCn1ccnc1)c1cc(-c2cccs2)on1 [compound 1186] | 94.79 | – | 367.36
Cc1ccccc1OCC(=O)OCc1ccc([N+](=O)[O-])cc1 [compound 1548] | 99.62 | 5.77 | –
CCCc1nnc(NC(=O)CSc2nnc(-c3cccs3)o2)s1 [compound 1200] | 74.03 | – | 198.48
Oc1c(Br)cc(Br)cc1/C=N/Nc1ccccn1 [compound 1271] | 57.70 | – | 38.63
Cc1ccc(-c2noc(CN3CCOCC3)n2)cc1 [compound 1333] | 96.79 | – | 3.71
CN(C(=O)c1cc2ccccc2oc1=O)C1(C)CCS(=O)(=O)C1 (stereo not shown) [compound 1309] | 119.29 | – | 10.58
Cc1nn(C)cc1CNC(=O)C1C2CCC(O2)C1C(=O)O (stereo not shown) [compound 1220] | 48.07 | – | 6.37
CCCc1cc(=O)n2ncc(-c3ccc(Cl)cc3)c2[nH]1 [compound 1158] | 62.57 | – | 71.35
Cc1ccc(C)c(OCC(=O)Nc2cc(Cl)c(Cl)cc2Cl)c1 [compound 1390] | 106.51 | 4.81 | –
O=C(Nc1nc(-c2ccccn2)cs1)c1cc(Cl)sc1Cl [compound 1505] | 70.89 | 43.28 | –
Oc1c2c(nn1-c1nc3ccccc3[nH]1)CCCC2 [compound 1112] | 77.30 | – | 112.20
Cc1nn2c(=O)c(Cc3ccc(Br)cc3)c(C)[nH]c2c1-c1ccccc1 [compound 1165] | 55.73 | – | 132.12
Cc1cc(=O)c2c(=O)n(-c3nc4ccccc4s3)[nH]c2[nH]1 [compound 1466] | 75.47 | 97.31 | –
c1ccc(-c2c(-c3ccccc3)n(Cc3ccco3)c3ncn4nc(-c5ccncc5)nc4c23)cc1 [compound 1304] | 89.74 | – | 59.37
CCCCN1C(C(=O)c2ccccc2)=C(OC(=O)CC)c2ccccc2S1(=O)=O [compound 1215] | 52.19 | – | 7.76
CCOC(=O)C1=C(C)NC2=C(C(=O)CC(c3ccccc3)C2)C1c1cccc(F)c1 (stereo not shown) [compound 1244] | 80.52 | – | 9.34
O=C(CSc1ncccc1C(=O)O)Nc1ccc(Oc2ccccc2)cc1 [compound 1343] | 103.75 | – | 4.57
COC(=O)COc1ccc(NC(=O)c2cccc(C)c2)cc1 [compound 1537] | 67.92 | 9.58 | –
O=C(CCc1ccccc1)NC(c1cccc([N+](=O)[O-])c1)c1c(O)ccc2ccccc12 (stereo not shown) [compound 1458] | 62.79 | 10.26 | –
c1ccc(-n2ncc3c2-c2[nH]c4ccccc4c2CC3)cc1 [compound 1474] | 80.47 | 17.37 | –

SMILES | Average Cell Viability after 24 Hours (% DMSO) (viable cells in culture) | Average Number of hTERT Transcripts [1] | Average Number of hTERT Transcripts ([1]; quantitative real-time RT-PCR)
CSc1nc(C2CC2)cc(-c2ccccc2)c1C#N [compound 1556] | 90.02 | 85.40 | –
CC(=O)Oc1ccc(C2Nc3ccc4ccccc4c3C3C=CCC32)c(OC(C)=O)c1 (stereo not shown) [compound 1461] | 55.44 | 29.65 | –
Oc1c2c(nn1-c1nc3ccccc3s1)CCCC2 [compound 1113] | 89.80 | – | 66.98
CCOC(=O)c1nn(-c2ccccc2)c(=O)c2c(NC(=O)c3c(F)cccc3Cl)scc12 [compound 1299] | 69.64 | – | 2.95
CC1CCN(C(=S)NC(=O)c2sc3ccccc3c2Cl)CC1 [compound 1422] | 102.65 | 19.95 | –
O=C(NCCc1ccccc1)c1ccc(NC(=O)C2(c3ccccc3)CCCC2)cc1 [compound 1428] | 92.20 | 7.81 | –
CSc1nc2nc(C)c(C(C)=O)c(C)n2n1 [compound 1361] | 109.24 | – | 17.57
O=C(OCc1cc(=O)n2nc(C3CC3)sc2n1)c1ccc(NC(=O)c2ccco2)cc1 [compound 1452] | 81.09 | 7.45 | –
CC(C)CN1CC23C=CC(O2)C(C(=O)OCc2ccccc2)C3C1=O (stereo not shown) [compound 1347] | 118.20 | – | 12.01
O=C(NCCN1CCNC1=O)c1cc(-c2cccs2)on1 [compound 1509] | 73.34 | 72.08 | –
CCCNC(=O)c1cc(-c2ccco2)on1 [compound 1190] | 96.27 | – | 41.79
Clc1ccc(OCc2nn3c(Cc4ccccc4)nnc3s2)c(Cl)c1 [compound 1475] | 67.26 | 17.56 | –
Cn1c(=O)c2c(nc(SCc3cc4c(cc3Cl)OCO4)n2C)n(C)c1=O [compound 1235] | 75.75 | – | 153.66
O=C(N/N=C/c1c(O)ccc2ccccc12)c1ccc(Cl)c(Cl)c1 [compound 1266] | 50.17 | – | 14.59
O=c1cc(Cc2ccccc2)[nH]c2c(-c3ccccc3)c(-c3ccccc3)nn12 [compound 1148] | 88.31 | – | 108.34
COC(=O)COc1ccc(S(=O)(=O)N2CCCC2)cc1Cl [compound 1437] | 79.26 | 22.13 | –
O=C(OCc1ccc(Cl)cc1Cl)c1ccc(-c2nnc(-c3ccccc3)o2)cc1 [compound 1525] | 83.30 | 7.73 | –
COc1ccc(-c2nnc(SCC(=O)Nc3ccc(S(N)(=O)=O)cc3)o2)cc1 [compound 1409] | 86.13 | 18.63 | –
Oc1cc(-c2ccccc2)nn1-c1nc2ccccc2[nH]1 [compound 1108] | 94.50 | – | 79.20
CN(C)CCCCNC(=O)c1cc(-c2cccs2)on1 [compound 1515] | 96.89 | 113.63 | –

— patent US12404304B1, “Telomerase reverse transcriptase (TERT) expression enhancing compounds and methods for using the same” (Sierra Sciences, LLC, priority 2007, dated 2025)
